Reference: US8338430B2, “N-substituted piperazines” (Dow AgroSciences, LLC., priority 2005, dated 2012)

Tests used:
Assay type in all cases: in vivo
[1] = system: beet armyworm (Spodoptera exigua) larvae; assay: Beet armyworm mortality on artificial diet (LAPHEG); details: 168 h, 4000 μg/ml, with piperonyl butoxide (approx. 1:4), mortality seven days after treatment, read-out: LAPHEG: % mortality against beet armyworm on artificial diet
Experimental: (§1) The compounds identified in TABLE 2 were prepared using the procedures illustrated in the previous examples and these compounds were tested against beet armyworm, mosquito, fruit fly, and cotton aphid using protocols described after.
(§2) Compounds were evaluated on mosquito (Aedes aegypti) larvae, beet armyworm (Spodoptera exigua) larvae, fruit fly (Drosophila melanogaster) adults and cotton aphid (Aphis gossypi). Newly hatched mosquito larvae (about 50 larvae/well) in 96-well microtiter plates in 230 ul of water containing powdered liver/yeast extract (1 gr/100 ml) were treated with 20 ppm solution of the test compound. Following treatment the plates were covered with a lid and mortality was determined three days after treatment. Beet armyworm eggs (about 5 per well) were placed on artificial diet (in a 96-well microtiter plate) treated with a 4000 ppm solution of a test compound in combination with piperonyl butoxide (in approximate ratio of 1:4). After infestation, the plates were covered with a lid and mortality was determined seven days following treatment. Five-day old fruit fly adults (about 5/well) were placed in deep-well microtiter plates containing 250 ul/well of a 2% agar-10% sucrose mixture that had been treated with a 4000 ppm solution of a test compound. Following infestation, the plates were covered with a lid and mortality was determined three days after treatment. Treatments for the mosquito and armyworm were replicated six times each, that of the fruit fly three times each.

[2] = system: mosquito (Aedes aegypti) larvae; assay: Mosquito larvae mortality (AEDSAE); details: 72 h, 20 μg/ml, mortality three days after treatment, read-out: AEDSAE: % mortality against mosquito larvae
Experimental: as §1, §2

[3] = system: fruit fly (Drosophila melanogaster) adults; assay: Adult fruit fly mortality on artificial diet (DROSME); details: 72 h, 4000 μg/ml, mortality three days after treatment, read-out: DROSME: % mortality against adult fruit fly on artificial diet
Experimental: as §1, §2

[4] = system: cotton aphid (Aphis gossypi); assay: Cotton aphid foliar spray test on squash (CA 200); details: 72 h, squash cotyledons, 3 days, Corrected % Control (Abbott), read-out: CA 200: % control against cotton aphid in foliar spray tests
Experimental: The compounds identified in TABLE 2 were prepared using the procedures illustrated in the previous examples and these compounds were tested against beet armyworm, mosquito, fruit fly, and cotton aphid using protocols described after. […]
Squash with fully expanded cotyledon leaves were trimmed to one cotyledon per plant and infested with cotton aphid (wingless adult and nymph) 1 day prior to chemical application.
Each plant is examined before chemical application to ensure proper infestation (ca. 30-70 aphids per plant). Compounds (3 mg) were dissolved in 3 mL of acetone:methanol (50:50) solvent, forming stock solutions of 1000 ppm. The stock solutions were then diluted with 0.025% Tween 20 (in H2O) to make […]. A hand-held Devilbiss sprayer was used to apply the spray solutions until runoff to both sides of the squash cotyledon leaves. Four plants (4 replications) were used for each concentration of each compound. Reference plants (solvent check) were sprayed with 0.025% Tween 20 only. Treated plants were held in a holding room for 3 days at approximately 23° C. and 40% RH before the number of live aphids on each plant was recorded. Insecticidal activity was measured by Corrected % Control using Abbott's correction formula and presented in TABLE 2: Corrected % Control=100*(X−Y)/X • where X=No. of live aphids on solvent check plants • Y=No. of live aphids on treated plants

[5] = system: Leptosphaeria nodorum=Stagnospora nodorum; assay: Fungicidal test for LEPTNO, glume blotch of wheat, one day protectant; details: 24 h, wheat plants (variety Yuma), sprayed one day before inoculation
Experimental: (§3) The compounds identified in Table 4 were prepared using the procedures illustrated in the previous examples and these compounds were tested against wheat glume blotch and wheat leaf blotch using the protocols described herein. Fungicidal Test for […] Each pot contained 3-20 seedlings. These plants were sprayed until wet with the formulated test compound at a rate of 25 ppm. On the following day, the leaves were inoculated with an aqueous spore suspension of Leptosphaeria nodorum and the plants were kept in high humidity (one day in a dark dew chamber followed by four to seven days in a lighted dew chamber) to permit spores to germinate and infect the leaf. The plants were then transferred to a greenhouse until disease developed on untreated control plants.

[6] = system: Mycosphaerella graminicola=Septoria tritici; assay: Fungicidal test for SEPTTR, speckled leaf blotch of wheat, one day protectant; details: 24 h, wheat plants (variety Monon), sprayed one day before inoculation
Experimental: as §3, with “Speckled Leaf Blotch of Wheat (Mycosphaerella graminicola=Septoria tritici; Bayer code […]): Wheat plants (variety Monon) were grown from seed in a greenhouse in 50% pasteurized soil/50% soil-less mix until the first true leaf was fully expanded, with 3-8 seedlings per pot.” for “Each pot contained 3-20 seedlings.”, “Septoria tritici” for “Leptosphaeria nodorum”, “leaf” for “leaf.”

Work on c1ccc(CCN2CCN(Cc3ccccc3-c3ccccc3)CC2)cc1 [Compound 93] yielded a mortality at 4000 µg/mL [1] of 1 to 25%, a mortality at 20 µg/mL [2] of 1 to 25% and a mortality at 4000 µg/mL [3] of 26 to 49%. The pest or weed control at 200 ppm [4] was 1 to 25%, the pest or weed control at 25 ppm [5] was 1 to 25% and the pest or weed control at 25 ppm [6] was 50 to 100%.
FC(F)(F)c1ccccc1CCN1CCN(Cc2cccc(-n3cccc3)c2)CC1 [Compound 119] showed a pest or weed control at 25 ppm [5] of 50 to 100% and a pest or weed control at 25 ppm [6] of 26 to 49%.
With c1ccc(CCN2CCN(Cc3ccc(OCc4ccccc4)cc3)CC2)cc1 [Compound 112] the pest or weed control at 25 ppm [5] was 1 to 25% and the pest or weed control at 25 ppm [6] was 50 to 100%.
Compound CCOCCN1CCN(Cc2ccc(OCc3ccccc3)cc2)CC1 [Compound 109] has a pest or weed control at 25 ppm [5] of 1 to 25% and a pest or weed control at 25 ppm [6] of 50 to 100%.
c1ccc(CCCN2CCN(Cc3ccc4ccccc4c3)CC2)cc1 [Compound 118] gave a pest or weed control at 25 ppm [5] of 50 to 100% and a pest or weed control at 25 ppm [6] of 50 to 100%.
c1ccc(OCCN2CCN(Cc3ccccc3-c3ccccc3)CC2)cc1 [Compound 92] was tested, and the mortality at 4000 µg/mL [1] was 1 to 25%, the mortality at 20 µg/mL [2] was 1 to 25% and the mortality at 4000 µg/mL [3] was 26 to 49%. The pest or weed control at 200 ppm [4] was 1 to 25%, the pest or weed control at 25 ppm [5] was 50 to 100% and the pest or weed control at 25 ppm [6] was 1 to 25%.
c1ccc(-c2ccccc2CN2CCN(CCc3ccccn3)CC2)cc1 [Compound 110] showed a pest or weed control at 25 ppm [5] of 1 to 25% and a pest or weed control at 25 ppm [6] of 50 to 100%.
Work on CC(c1ccccc1)N1CCN(Cc2ccc3ccccc3c2)CC1 (stereo not shown) [Compound 187] yielded a pest or weed control at 25 ppm [5] of 50 to 100% and a pest or weed control at 25 ppm [6] of 50 to 100%.
For FC(F)(F)c1ccccc1CCN1CCN(Cc2ccc3ccccc3c2)CC1 [Compound 80], the mortality at 4000 µg/mL [1] was 26 to 49%, the mortality at 20 µg/mL [2] was 1 to 25% and the mortality at 4000 µg/mL [3] was 1 to 25%. The pest or weed control at 200 ppm [4] was 26 to 49%, the pest or weed control at 25 ppm [5] was 50 to 100% and the pest or weed control at 25 ppm [6] was 50 to 100%.
Compound CC(c1ccccc1)N1CCN(Cc2cccc(-n3cccc3)c2)CC1 (stereo not shown) [Compound 234] has a pest or weed control at 25 ppm [5] of 50 to 100% and a pest or weed control at 25 ppm [6] of 1 to 25%.
c1ccc(COc2ccc(CN3CCN(CCOc4ccccc4)CC3)cc2)cc1 [Compound 111] showed a pest or weed control at 25 ppm [5] of 50 to 100% and a pest or weed control at 25 ppm [6] of 50 to 100%.
FC(F)(F)c1ccccc1CCN1CCN(Cc2ccc(Cl)s2)CC1 [Compound 81] was tested, and the mortality at 4000 µg/mL [1] was 1 to 25%, the mortality at 20 µg/mL [2] was 1 to 25% and the mortality at 4000 µg/mL [3] was 1 to 25%. For the same compound, the pest or weed control at 200 ppm [4] was 50 to 100%, the pest or weed control at 25 ppm [5] was 50 to 100% and the pest or weed control at 25 ppm [6] was 50 to 100%.
Compound FC(F)(F)c1ccccc1CCN1CCN(Cc2csc3ccc(Cl)cc23)CC1 [Compound 88] has a mortality at 4000 µg/mL [1] of 1 to 25%, a mortality at 20 µg/mL [2] of 1 to 25% and a mortality at 4000 µg/mL [3] of 1 to 25%. The pest or weed control at 200 ppm [4] was 50 to 100%, the pest or weed control at 25 ppm [5] was 1 to 25% and the pest or weed control at 25 ppm [6] was 50 to 100%.
